According to patent US20190284168A1, “PYRAZOLE DERIVATIES AS SGC STIMULATORS” (IRONWOOD PHARMACEUTICALS, INC., priority 2014, published 2019):

Target: T1, soluble guanylate cyclase (sGC) (Homo sapiens, UniProt Q02108+Q02153)
T1 construct: endogenously expressing soluble guanylate cyclase (sGC); endogenous in cells; host or cells: HEK293
T1 sequence (Q02153 1-619): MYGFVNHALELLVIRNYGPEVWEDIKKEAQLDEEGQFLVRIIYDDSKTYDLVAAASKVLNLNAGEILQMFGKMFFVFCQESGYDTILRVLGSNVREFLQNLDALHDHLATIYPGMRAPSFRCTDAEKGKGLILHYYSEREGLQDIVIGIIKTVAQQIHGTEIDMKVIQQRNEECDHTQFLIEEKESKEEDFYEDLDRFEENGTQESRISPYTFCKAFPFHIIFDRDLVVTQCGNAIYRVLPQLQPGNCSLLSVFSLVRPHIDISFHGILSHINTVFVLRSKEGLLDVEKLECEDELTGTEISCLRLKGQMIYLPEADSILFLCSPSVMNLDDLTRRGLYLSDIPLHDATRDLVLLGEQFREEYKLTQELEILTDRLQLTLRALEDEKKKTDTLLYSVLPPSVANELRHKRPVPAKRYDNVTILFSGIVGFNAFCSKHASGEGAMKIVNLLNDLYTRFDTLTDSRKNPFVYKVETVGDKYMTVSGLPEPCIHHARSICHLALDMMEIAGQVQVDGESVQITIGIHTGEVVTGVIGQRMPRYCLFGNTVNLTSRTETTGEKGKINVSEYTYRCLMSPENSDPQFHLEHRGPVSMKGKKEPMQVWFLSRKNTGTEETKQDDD
T1 sequence (Q02108 1-690): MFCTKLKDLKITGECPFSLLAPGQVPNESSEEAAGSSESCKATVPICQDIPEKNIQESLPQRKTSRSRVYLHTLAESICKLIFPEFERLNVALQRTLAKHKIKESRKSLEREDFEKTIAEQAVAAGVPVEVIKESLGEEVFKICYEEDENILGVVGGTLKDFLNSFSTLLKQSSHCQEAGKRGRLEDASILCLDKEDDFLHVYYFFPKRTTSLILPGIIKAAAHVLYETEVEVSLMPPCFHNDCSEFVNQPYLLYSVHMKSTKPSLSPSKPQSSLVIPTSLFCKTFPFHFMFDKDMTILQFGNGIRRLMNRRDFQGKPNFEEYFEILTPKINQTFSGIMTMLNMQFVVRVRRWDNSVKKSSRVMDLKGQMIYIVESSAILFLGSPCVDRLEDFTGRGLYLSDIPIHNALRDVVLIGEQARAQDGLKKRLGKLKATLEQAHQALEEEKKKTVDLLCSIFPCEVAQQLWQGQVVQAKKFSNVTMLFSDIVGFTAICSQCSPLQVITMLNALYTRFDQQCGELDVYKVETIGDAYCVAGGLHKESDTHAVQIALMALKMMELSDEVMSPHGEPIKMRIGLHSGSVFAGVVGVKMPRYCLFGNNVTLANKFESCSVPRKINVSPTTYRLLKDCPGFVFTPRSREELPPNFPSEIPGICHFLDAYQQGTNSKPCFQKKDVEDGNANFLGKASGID
Assay: sGC-HEK-cGMP assay with LC/MS detection
Assay type: cell-based
Settings: HEK293 whole cells, LC/MS detection of cGMP, 10 μM DETA-NONOate; 50% of high control response (30 μM Compound Y); read-out: Absolute EC50 (nM)- binned (~)

Structure (SMILES) | EC50 [nM]
CSCC[C@H](CO)Nc1nc(-c2cc(-c3ccon3)n(Cc3ccccc3F)n2)ncc1F [Compound 150, (R)-2-((5-fluoro-2-(1-(2-fluorobenzyl)-5-(isoxazol-3-yl)-1H-pyrazol-3-yl)pyrimidin-4-yl)amino)-4-(methylthio)butan-1-ol] | < 100
CCCC[C@H](CO)Nc1nc(-c2cc(-c3ccon3)n(Cc3ccccc3F)n2)ncc1F [Compound 151, (R)-2-((5-fluoro-2-(1-(2-fluorobenzyl)-5-(isoxazol-3-yl)-1H-pyrazol-3-yl)pyrimidin-4-yl)amino)hexan-1-ol] | < 100
CCC[C@H](CO)Nc1nc(-c2cc(-c3ccon3)n(Cc3ccccc3F)n2)ncc1F [Compound 152, (R)-2-((5-fluoro-2-(1-(2-fluorobenzyl)-5-(isoxazol-3-yl)-1H-pyrazol-3-yl)pyrimidin-4-yl)amino)pentan-1-ol] | < 100
CCC(N)(CC)CNc1nc(-c2cc(-c3ccon3)n(Cc3ccccc3F)n2)ncc1F [Compound 153, 2-ethyl-N1-(5-fluoro-2-(1-(2-fluorobenzyl)-5-(isoxazol-3-yl)-1H-pyrazol-3-yl)pyrimidin-4-yl)butane-1,2-diamine] | 100 to 1000
CC(C)C(C)(N)CNc1nc(-c2cc(-c3ccon3)n(Cc3ccccc3F)n2)ncc1F (stereo not shown) [Compound 154, N1-(5-fluoro-2-(1-(2-fluorobenzyl)-5-(isoxazol-3-yl)-1H-pyrazol-3-yl)pyrimidin-4-yl)-2,3-dimethylbutane-1,2-diamine] | 100 to 1000
CCCC(C)(N)CNc1nc(-c2cc(-c3ccon3)n(Cc3ccccc3F)n2)ncc1F (stereo not shown) [Compound 155, N1-(5-fluoro-2-(1-(2-fluorobenzyl)-5-(isoxazol-3-yl)-1H-pyrazol-3-yl)pyrimidin-4-yl)-2-methylpentane-1,2-diamine] | 100 to 1000
CC(C)CC(C)(N)CNc1nc(-c2cc(-c3ccon3)n(Cc3ccccc3F)n2)ncc1F (stereo not shown) [Compound 156, N1-(5-fluoro-2-(1-(2-fluorobenzyl)-5-(isoxazol-3-yl)-1H-pyrazol-3-yl)pyrimidin-4-yl)-2,4-dimethylpentane-1,2-diamine] | 100 to 1000
C[C@H]1CCCN(c2nc(-c3cc(-c4ccon4)n(Cc4ccccc4F)n3)ncc2F)[C@H]1C(=O)OCCN1CCOCC1 [Compound 157, (2R,3S)-2-morpholinoethyl 1-(5-fluoro-2-(1-(2-fluorobenzyl)-5-(isoxazol-3-yl)-1H-pyrazol-3-yl)pyrimidin-4-yl)-3-methylpiperidine-2-carboxylate] | > 1000
O=C(Nc1nc(-c2cc(-c3ccon3)n(Cc3ccccc3F)n2)ncc1F)OCCN1CCOCC1 [Compound 158, 2-morpholinoethyl (5-fluoro-2-(1-(2-fluorobenzyl)-5-(isoxazol-3-yl)-1H-pyrazol-3-yl)pyrimidin-4-yl)carbamate] | > 1000
Nc1ccc(CNc2nc(-c3cc(-c4ccon4)n(Cc4ccccc4F)n3)ncc2F)cc1O [Compound 159, 2-amino-5-(((5-fluoro-2-(1-(2-fluorobenzyl)-5-(isoxazol-3-yl)-1H-pyrazol-3-yl)pyrimidin-4-yl)amino)methyl)phenol] | > 30000
O=S(=O)(Nc1ccc(CNc2nc(-c3cc(-c4ccon4)n(Cc4ccccc4F)n3)ncc2F)cc1O)C1CC1 [Compound 160, N-(4-(((5-fluoro-2-(1-(2-fluorobenzyl)-5-(isoxazol-3-yl)-1H-pyrazol-3-yl)pyrimidin-4-yl)amino)methyl)-2-hydroxyphenyl)cyclopropanesulfonamide] | 100 to 1000
CS(=O)(=O)Nc1ccc(CNc2nc(-c3cc(-c4ccon4)n(Cc4ccccc4F)n3)ncc2F)cc1O [Compound 161, N-(4-(((5-fluoro-2-(1-(2-fluorobenzyl)-5-(isoxazol-3-yl)-1H-pyrazol-3-yl)pyrimidin-4-yl)amino)methyl)-2-hydroxyphenyl)methanesulfonamide] | 100 to 1000
O=C(CCNc1nc(-c2cc(-c3ccon3)n(Cc3ccccc3F)n2)ncc1F)OCCN1CCOCC1 [Compound 162, 2-morpholinoethyl 3-((5-fluoro-2-(1-(2-fluorobenzyl)-5-(isoxazol-3-yl)-1H-pyrazol-3-yl)pyrimidin-4-yl)amino)propanoate] | 100 to 1000
COC(=O)CCNc1nc(-c2cc(-c3ccon3)n(Cc3ccccc3F)n2)ncc1F [Compound 163, methyl 3-((5-fluoro-2-(1-(2-fluorobenzyl)-5-(isoxazol-3-yl)-1H-pyrazol-3-yl)pyrimidin-4-yl)amino)propanoate] | < 100
CC(C)OC(=O)CCNc1nc(-c2cc(-c3ccon3)n(Cc3ccccc3F)n2)ncc1F [Compound 164, isopropyl 3-((5-fluoro-2-(1-(2-fluorobenzyl)-5-(isoxazol-3-yl)-1H-pyrazol-3-yl)pyrimidin-4-yl)amino)propanoate] | < 100
CCOC(=O)CCNc1nc(-c2cc(-c3ccon3)n(Cc3ccccc3F)n2)ncc1F [Compound 165, ethyl 3-((5-fluoro-2-(1-(2-fluorobenzyl)-5-(isoxazol-3-yl)-1H-pyrazol-3-yl)pyrimidin-4-yl)amino)propanoate] | 100 to 1000

Structure (SMILES) | EC50 [nM]
C=CCN(C)c1nc(-c2cc(-c3ccon3)n(Cc3ccccc3F)n2)ncc1F [Compound 166, N-allyl-5-fluoro-2-(1-(2-fluorobenzyl)-5-(isoxazol-3-yl)-1H-pyrazol-3-yl)-N-methylpyrimidin-4-amine] | > 1000
CC(=O)c1cc(-c2ncc(F)c(N3CCC(C(=O)O)(C(C)C)CC3)n2)nn1Cc1ccccc1F [Compound 179] | 100 to 1000
CC(=O)c1cc(-c2ncc(F)c(NCC(O)CO)n2)nn1Cc1ccccc1F (stereo not shown) [Compound 180] | 100 to 1000
CC(=O)c1cc(-c2ncc(F)c(N3CCC(C)(C(=O)O)CC3)n2)nn1Cc1ccccc1F [Compound 181] | 100 to 1000
Oc1cccc(F)c1Cn1nc(-c2ncc(F)c(O)n2)cc1-c1ccon1 [Compound 182] | > 1000
Oc1cccc(F)c1Cn1nc(-c2ncc(F)c(NCC(O)(C(F)(F)F)C(F)(F)F)n2)cc1-c1ccon1 [Compound 183] | > 1000
Oc1ccc(Cn2nc(-c3ncc(F)c(NCC(O)(C(F)(F)F)C(F)(F)F)n3)cc2-c2ccon2)c(F)c1 [Compound 184] | > 1000
CC(=O)c1cc(-c2ncc(F)c(NCC(C)(O)C(N)=O)n2)nn1Cc1ccccc1F (stereo not shown) [Compound 193] | > 1000
CC(=O)c1cc(-c2ncc(F)c(N[C@@H](CO)C(N)=O)n2)nn1Cc1ccccc1F [Compound 194, (S)-2-((2-(5-acetyl-1-(2-fluorobenzyl)-1H-pyrazol-3-yl)-5-fluoropyrimidin-4-yl)amino)-3-hydroxypropanamide] | > 1000
NC(=O)[C@](O)(CNc1nc(-c2cc(-c3ccon3)n(Cc3ccc(O)cc3F)n2)ncc1F)C(F)(F)F [Compound 195] | > 1000
CS(=O)(=O)c1cc(-c2ncc(F)c(O)n2)nn1Cc1ccccc1F [Compound 196] | > 30000
NCC(=O)OCCNc1nc(-c2cc(-c3ccon3)n(Cc3ccccc3F)n2)ncc1F [Compound 199] | 100 to 1000
O=C(CN1CCCCC1)OCCNc1nc(-c2cc(-c3ccon3)n(Cc3ccccc3F)n2)ncc1F [Compound 200] | > 1000
O=C(OCCNc1nc(-c2cc(-c3ccon3)n(Cc3ccccc3F)n2)ncc1F)C1CCCCN1 (stereo not shown) [Compound 202] | 100 to 1000
O=C(OCCNc1nc(-c2cc(-c3ccon3)n(Cc3ccccc3F)n2)ncc1F)c1ccccn1 [Compound 206] | < 100
